# Assay results taken from the supplement of paper PMC11451515.
# Tested on: NOMO1
# Assay: cell viability relative to DMSO control; higher = less cytotoxic
# Conditions: 48 h
# Summary of the method: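 NOMO1, SEM and P12-Ichikawa leukemia cells spent at least four passages adapting to each medium before use. They were seeded at 500 cells/well (NOMO1, SEM) or 1000 cells/well (P12-Ichikawa) in 5 μl in 1536-well plates and pin-dosed with library compounds in DMSO at 11 threefold steps from 47 μM down to 0.79 nM. After 48 h at 37°C, CellTiter-Glo One luminescence was read. Viability is reported as a percentage of the DMSO wells on each plate, with cell-free wells as background.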
# [1] = HPLM + 10% dialyzed FBS, 0.000781 µM
# [2] = HPLM + 10% dialyzed FBS, 0.00234 µM
# [3] = HPLM + 10% dialyzed FBS, 0.00702 µM
# [4] = HPLM + 10% dialyzed FBS, 0.0211 µM
# [5] = HPLM + 10% dialyzed FBS, 0.0632 µM
# [6] = HPLM + 10% dialyzed FBS, 0.19 µM
# [7] = HPLM + 10% dialyzed FBS, 0.569 µM
# [8] = HPLM + 10% dialyzed FBS, 1.71 µM
# [9] = HPLM + 10% dialyzed FBS, 5.12 µM
# [10] = HPLM + 10% dialyzed FBS, 15.4 µM
# [11] = HPLM + 10% dialyzed FBS, 46.1 µM
# [12] = RPMI 5 mM glucose + 10% FBS, 0.000781 µM
# [13] = RPMI 5 mM glucose + 10% FBS, 0.00234 µM
# [14] = RPMI 5 mM glucose + 10% FBS, 0.00702 µM
# [15] = RPMI 5 mM glucose + 10% FBS, 0.0211 µM
# [16] = RPMI 5 mM glucose + 10% FBS, 0.0632 µM
# [17] = RPMI 5 mM glucose + 10% FBS, 0.19 µM
# [18] = RPMI 5 mM glucose + 10% FBS, 0.569 µM
# [19] = RPMI 5 mM glucose + 10% FBS, 1.71 µM
# [20] = RPMI 5 mM glucose + 10% FBS, 5.12 µM
# [21] = RPMI 5 mM glucose + 10% FBS, 15.4 µM
# [22] = RPMI 5 mM glucose + 10% FBS, 46.1 µM
# [23] = RPMI 5 mM glucose + 10% dialyzed FBS, 0.000781 µM
# [24] = RPMI 5 mM glucose + 10% dialyzed FBS, 0.00234 µM
# [25] = RPMI 5 mM glucose + 10% dialyzed FBS, 0.00702 µM
# [26] = RPMI 5 mM glucose + 10% dialyzed FBS, 0.0211 µM
# [27] = RPMI 5 mM glucose + 10% dialyzed FBS, 0.0632 µM
# [28] = RPMI 5 mM glucose + 10% dialyzed FBS, 0.19 µM
# [29] = RPMI 5 mM glucose + 10% dialyzed FBS, 0.569 µM
# [30] = RPMI 5 mM glucose + 10% dialyzed FBS, 1.71 µM
# [31] = RPMI 5 mM glucose + 10% dialyzed FBS, 5.12 µM
# [32] = RPMI 5 mM glucose + 10% dialyzed FBS, 15.4 µM
# [33] = RPMI 5 mM glucose + 10% dialyzed FBS, 46.1 µM
compound,measurement,setting,value
CCOC(=O)c1ncn2c1CN(C)C(=O)c1cc(F)ccc1-2,cell viability,[1],131%
same,cell viability,[2],124%
same,cell viability,[3],124%
same,cell viability,[4],117%
same,cell viability,[5],123%
same,cell viability,[6],120%
same,cell viability,[7],109%
same,cell viability,[8],110%
same,cell viability,[9],108%
same,cell viability,[10],90%
same,cell viability,[11],73.6%
same,cell viability,[12],116%
same,cell viability,[13],130%
same,cell viability,[14],118%
same,cell viability,[15],111%
same,cell viability,[16],99.6%
same,cell viability,[17],104%
same,cell viability,[18],106%
same,cell viability,[19],120%
same,cell viability,[20],120%
same,cell viability,[21],108%
same,cell viability,[22],76.8%
same,cell viability,[23],122%
same,cell viability,[24],109%
same,cell viability,[25],110%
same,cell viability,[26],124%
same,cell viability,[27],113%
same,cell viability,[28],107%
same,cell viability,[29],128%
same,cell viability,[30],95.7%
same,cell viability,[31],116%
same,cell viability,[32],103%
same,cell viability,[33],78.8%
CC(C)[C@@H](N(CCCN)C(=O)C1=CC=C(C)C=C1)C/2=C(\CC3=CC=CC=C3)C(=O)C4=C(O2)C=C(Cl)C=C4,cell viability,[1],47.8%
same,cell viability,[2],38.1%
same,cell viability,[3],34.7%
same,cell viability,[4],35.9%
same,cell viability,[5],40.9%
same,cell viability,[6],45.8%
same,cell viability,[7],34.9%
same,cell viability,[8],36.3%
same,cell viability,[9],32.5%
same,cell viability,[10],40.7%
same,cell viability,[11],4.73%
same,cell viability,[12],20.1%
same,cell viability,[13],26.5%
same,cell viability,[14],29%
same,cell viability,[15],26.4%
same,cell viability,[16],21.9%
same,cell viability,[17],29%
same,cell viability,[18],21.1%
same,cell viability,[19],23.9%
same,cell viability,[20],27.2%
same,cell viability,[21],31.7%
same,cell viability,[22],7.48%
same,cell viability,[23],48.7%
same,cell viability,[24],34.7%
same,cell viability,[25],29.5%
same,cell viability,[26],30.9%
same,cell viability,[27],35.1%
same,cell viability,[28],34.6%
same,cell viability,[29],27.2%
same,cell viability,[30],32.8%
same,cell viability,[31],29.6%
same,cell viability,[32],33.5%
same,cell viability,[33],5.92%
CN[C@@H](C)C(=O)N[C@H]1CCCC[C@H]2CC[C@@H](C(=O)N[C@@H](c3ccccc3)c3cn(CCCCc4ccc(CCCCn5cc([C@@H](NC(=O)[C@@H]6CC[C@@H]7CCCC[C@H](NC(=O)[C@H](C)NC)C(=O)N76)c6ccccc6)nn5)cc4)nn3)N2C1=O,cell viability,[1],82.8%
same,cell viability,[2],79.3%
same,cell viability,[3],56%
same,cell viability,[4],61%
same,cell viability,[5],42.3%
same,cell viability,[6],54.4%
same,cell viability,[7],50.6%
same,cell viability,[8],47.9%
same,cell viability,[9],48%
same,cell viability,[10],27.5%
same,cell viability,[11],33.4%
same,cell viability,[12],85.6%
same,cell viability,[13],82.4%
same,cell viability,[14],80.8%
same,cell viability,[15],87.9%
same,cell viability,[16],48.4%
same,cell viability,[17],61.5%
same,cell viability,[18],74%
same,cell viability,[19],70.8%
same,cell viability,[20],51.8%
same,cell viability,[21],51.2%
same,cell viability,[22],57.1%
same,cell viability,[23],75.9%
same,cell viability,[24],81.6%
same,cell viability,[25],84.8%
same,cell viability,[26],64.9%
same,cell viability,[27],65.5%
same,cell viability,[28],72.2%
same,cell viability,[29],53.6%
same,cell viability,[30],52.2%
same,cell viability,[31],42.6%
same,cell viability,[32],54.7%
same,cell viability,[33],34.2%
CC(Oc1ccc(O)cc1)(P(=O)(O)O)P(=O)(O)O,cell viability,[1],94.2%
same,cell viability,[2],115%
same,cell viability,[3],91.7%
same,cell viability,[4],92.8%
same,cell viability,[5],99.5%
same,cell viability,[6],93.5%
same,cell viability,[7],91.3%
same,cell viability,[8],85.8%
same,cell viability,[9],103%
same,cell viability,[10],42.6%
same,cell viability,[11],17.3%
same,cell viability,[12],91.6%
same,cell viability,[13],88%
same,cell viability,[14],87.4%
same,cell viability,[15],83.7%
same,cell viability,[16],94.8%
same,cell viability,[17],101%
same,cell viability,[18],90.4%
same,cell viability,[19],85.7%
same,cell viability,[20],78.5%
same,cell viability,[21],73.7%
same,cell viability,[22],14.6%
same,cell viability,[23],94.8%
same,cell viability,[24],100%
same,cell viability,[25],87.9%
same,cell viability,[26],93%
same,cell viability,[27],84.9%
same,cell viability,[28],95.8%
same,cell viability,[29],92%
same,cell viability,[30],91%
same,cell viability,[31],83.9%
same,cell viability,[32],64.8%
same,cell viability,[33],14.4%
c1ccc2c(Oc3nc(Nc4ccc(N5CCOCC5)cc4)c4ncn(C5CCCCC5)c4n3)cccc2c1,cell viability,[12],113%
same,cell viability,[13],117%
same,cell viability,[14],129%
same,cell viability,[15],127%
same,cell viability,[16],126%
same,cell viability,[17],133%
same,cell viability,[18],131%
same,cell viability,[19],149%
same,cell viability,[20],132%
same,cell viability,[21],153%
same,cell viability,[22],136%
same,cell viability,[23],102%
same,cell viability,[24],121%
same,cell viability,[25],126%
same,cell viability,[26],143%
same,cell viability,[27],125%
same,cell viability,[28],146%
same,cell viability,[29],139%
same,cell viability,[30],127%
same,cell viability,[31],123%
same,cell viability,[32],124%
same,cell viability,[33],135%
CCOC(=O)c1ccc(C#Cc2ccc3c(c2)C(C)(C)CCS3)nc1,cell viability,[1],101%
same,cell viability,[2],109%
same,cell viability,[3],122%
same,cell viability,[4],108%
same,cell viability,[5],86.1%
same,cell viability,[6],104%
same,cell viability,[7],103%
same,cell viability,[8],101%
same,cell viability,[9],97.8%
same,cell viability,[10],89.1%
same,cell viability,[11],79.6%
same,cell viability,[12],94%
same,cell viability,[13],108%
same,cell viability,[14],91.6%
same,cell viability,[15],100%
same,cell viability,[16],93.3%
same,cell viability,[17],94%
same,cell viability,[18],107%
same,cell viability,[19],96.8%
same,cell viability,[20],99.4%
same,cell viability,[21],98.6%
same,cell viability,[22],94.2%
same,cell viability,[23],90%
same,cell viability,[24],108%
same,cell viability,[25],104%
same,cell viability,[26],109%
same,cell viability,[27],97.9%
same,cell viability,[28],90.2%
same,cell viability,[29],90.7%
same,cell viability,[30],94.9%
same,cell viability,[31],94.6%
same,cell viability,[32],99.6%
same,cell viability,[33],88.7%
N=C(N)c1ccc(OCCCCCOc2ccc(C(=N)N)cc2)cc1,cell viability,[1],111%
same,cell viability,[2],105%
same,cell viability,[3],113%
same,cell viability,[4],121%
same,cell viability,[5],130%
same,cell viability,[6],133%
same,cell viability,[7],104%
same,cell viability,[8],104%
same,cell viability,[9],110%
same,cell viability,[10],75.8%
same,cell viability,[11],46.6%
same,cell viability,[12],100%
same,cell viability,[13],114%
same,cell viability,[14],113%
same,cell viability,[15],108%
same,cell viability,[16],113%
same,cell viability,[17],92.2%
same,cell viability,[18],116%
same,cell viability,[19],107%
same,cell viability,[20],93.6%
same,cell viability,[21],84.8%
same,cell viability,[22],47.7%
same,cell viability,[23],91.6%
same,cell viability,[24],101%
same,cell viability,[25],121%
same,cell viability,[26],115%
same,cell viability,[27],114%
same,cell viability,[28],107%
same,cell viability,[29],108%
same,cell viability,[30],98.6%
same,cell viability,[31],98.3%
same,cell viability,[32],70.6%
same,cell viability,[33],49.2%
CCCCc1oc2ccc(NS(C)(=O)=O)cc2c1C(=O)c1ccc(OCCCN(CCCC)CCCC)cc1,cell viability,[1],109%
same,cell viability,[2],107%
same,cell viability,[3],100%
same,cell viability,[4],105%
same,cell viability,[5],96.7%
same,cell viability,[6],113%
same,cell viability,[7],114%
same,cell viability,[8],64.7%
same,cell viability,[9],34%
same,cell viability,[10],27.5%
same,cell viability,[11],14.4%
same,cell viability,[12],86.9%
same,cell viability,[13],98%
same,cell viability,[14],103%
same,cell viability,[15],98.3%
same,cell viability,[16],97.1%
same,cell viability,[17],93.4%
same,cell viability,[18],103%
same,cell viability,[19],28.8%
same,cell viability,[20],17.8%
same,cell viability,[21],16.4%
same,cell viability,[22],9.17%
same,cell viability,[23],83.2%
same,cell viability,[24],95.5%
same,cell viability,[25],102%
same,cell viability,[26],102%
same,cell viability,[27],93.7%
same,cell viability,[28],106%
same,cell viability,[29],103%
same,cell viability,[30],66%
same,cell viability,[31],28.3%
same,cell viability,[32],20.6%
same,cell viability,[33],12.5%
